Assay results: patent USRE31731E, “Herbicidal 4-trifluoromethyl-4-nitrodiphenyl ethers” (priority 1978, dated 1984)

test system: Dicots; assay: Herbicidal activity, postemergence, dicot weeds (Table II); type: in vivo; settings: post-emergence, 336 h, 2 lb./A., about 2 weeks, read-out: % control (percent of plants killed)
Experimental: (§1) Using the procedure described below, diphenyl ethers were evaluated for control of the following weeds: […]
(§2) bindweed (Convolvulus arvensis) curly dock (Remex crispus) velvetleaf (Abutilon theophrasti) wild mustard (Brassica haber)
(§3) At 2 and 4 pounds per acre: […]
(§4) cocklebur (Xanthium pensylvanicum)
(§5) **coffeeweed (Sesbania macrocarpa)
(§6) *curly dock (Rumex crispus)
(§7) *lambsquarters (Chenopodium album) morningglory (Ipomoea purpurea)
(§8) *pigweed (Amaranthus retroflexus)
(§9) **ragweed (Ambrosia artemisiifolia)
(§10) *smartweed (Polygonum pensylvanicum)
(§11) **tomato (Lycopersicon esculentum)
(§12) *wild carrot (Daucus carota)
(§13) *wild mustard (Brassica haber)
(§14) The following test procedure is employed. Seeds of selected crops and weeds are planted in soil in flats. For preemergence tests, the flats are treated with the test compound immediately after the planting. For postemergence tests, the seeds are allowed to germinate, and after 2 weeks the flats are treated with the test compound. The compound to be evaluated is dissolved in acetone, diluted with water, and sprayed over the flats using a carrier volume equivalent to 50 gallons per acre at the rate of application (pounds per acre, lb/A.) specified in the tables. About 2 weeks after the application of the test compound, the state of growth of the plants is observed and the phytotoxic effect of the compound is evaluated. Table II gives the average percent control achieved by the test compounds in terms of the percent of the plants which are killed by the compounds.

Compound | pest or weed control at 2241.7 g/ha [%]
CCN(C(=O)NC)c1cc(Oc2ccc(C(F)(F)F)cc2Cl)ccc1[N+](=O)[O-] [Example 55, 2-Chloro-α,α,α-trifluoro-p-tolyl-3-(3-methyl-1-ethylureido)-4-nitrophenyl ether] | 96

same assay, conditions: post-emergence, 336 h, 4 lb./A., about 2 weeks, read-out: % control (percent of plants killed)

Compound | pest or weed control at 4483.4 g/ha [%]
CCCCOc1cc(Oc2ccc(C(F)(F)F)cc2Cl)ccc1[N+](=O)[O-] [Example 6] | 94
COc1cc(Oc2ccc(C(F)(F)F)cc2Cl)ccc1[N+](=O)[O-] [Example 2] | 100
CCOc1cc(Oc2ccc(C(F)(F)F)cc2)ccc1[N+](=O)[O-] [Example 1] | 58
CCN(C(=O)NC)c1cc(Oc2ccc(C(F)(F)F)cc2Cl)ccc1[N+](=O)[O-] [Example 55, 2-Chloro-α,α,α-trifluoro-p-tolyl-3-(3-methyl-1-ethylureido)-4-nitrophenyl ether] | 95

same assay, conditions: post-emergence, 336 h, 10 lb./A., about 2 weeks, read-out: % control (percent of plants killed)

Compound | pest or weed control at 11208.5 g/ha [%]
CCCCOc1cc(Oc2ccc(C(F)(F)F)cc2Cl)ccc1[N+](=O)[O-] [Example 6] | 100
COc1cc(Oc2ccc(C(F)(F)F)cc2Cl)ccc1[N+](=O)[O-] [Example 2] | 100
CCOc1cc(Oc2ccc(C(F)(F)F)cc2)ccc1[N+](=O)[O-] [Example 1] | 100

test system: Dicots; assay: Herbicidal activity, preemergence, dicot weeds (Table II); type: in vivo; settings: pre-emergence, 336 h, 4 lb./A., about 2 weeks, read-out: % control (percent of plants killed)
Experimental: as §1, §2, §3, §4, §5, §6, §7, §8, §9, §10, §11, §12, §13, §14

Compound | pest or weed control at 4483.4 g/ha [%]
CCCCOc1cc(Oc2ccc(C(F)(F)F)cc2Cl)ccc1[N+](=O)[O-] [Example 6] | 55
COc1cc(Oc2ccc(C(F)(F)F)cc2Cl)ccc1[N+](=O)[O-] [Example 2] | 80
CCOc1cc(Oc2ccc(C(F)(F)F)cc2)ccc1[N+](=O)[O-] [Example 1] | 45
CCN(C(=O)NC)c1cc(Oc2ccc(C(F)(F)F)cc2Cl)ccc1[N+](=O)[O-] [Example 55, 2-Chloro-α,α,α-trifluoro-p-tolyl-3-(3-methyl-1-ethylureido)-4-nitrophenyl ether] | 73

same assay, conditions: pre-emergence, 336 h, 10 lb./A., about 2 weeks, read-out: % control (percent of plants killed)

Compound | pest or weed control at 11208.5 g/ha [%]
CCCCOc1cc(Oc2ccc(C(F)(F)F)cc2Cl)ccc1[N+](=O)[O-] [Example 6] | 70
COc1cc(Oc2ccc(C(F)(F)F)cc2Cl)ccc1[N+](=O)[O-] [Example 2] | 100
CCOc1cc(Oc2ccc(C(F)(F)F)cc2)ccc1[N+](=O)[O-] [Example 1] | 35

test system: Monocots; assay: Herbicidal activity, preemergence, monocot weeds (Table II); type: in vivo; settings: pre-emergence, 336 h, 4 lb./A., about 2 weeks, read-out: % control (percent of plants killed)
Experimental: as §1
(§15) barnyardgrass (Echinochloa crusgalli) crabgrass (Digitaria spp.) nutsedge (Cyperus esculentus)
(§16) At 2 and 4 pounds per acre:
(§17) **Bermudagrass (Cynodon dactylon)
(§18) *downy brome (Bromus tectorum) foxtail (Setaria faberii)
(§19) Johnsongrass (Sorghum halepense) […]
(§20) quackgrass (Agropyron repens)
(§21) *ryegrass (Lolium perenne)
(§22) *yellow millet (Panicum miliaceum)
as §14

Compound | pest or weed control at 4483.4 g/ha [%]
CCCCOc1cc(Oc2ccc(C(F)(F)F)cc2Cl)ccc1[N+](=O)[O-] [Example 6] | 77
COc1cc(Oc2ccc(C(F)(F)F)cc2Cl)ccc1[N+](=O)[O-] [Example 2] | 97
CCOc1cc(Oc2ccc(C(F)(F)F)cc2)ccc1[N+](=O)[O-] [Example 1] | 76
CCN(C(=O)NC)c1cc(Oc2ccc(C(F)(F)F)cc2Cl)ccc1[N+](=O)[O-] [Example 55, 2-Chloro-α,α,α-trifluoro-p-tolyl-3-(3-methyl-1-ethylureido)-4-nitrophenyl ether] | 91

same assay, conditions: pre-emergence, 336 h, 10 lb./A., about 2 weeks, read-out: % control (percent of plants killed)

Compound | pest or weed control at 11208.5 g/ha [%]
CCCCOc1cc(Oc2ccc(C(F)(F)F)cc2Cl)ccc1[N+](=O)[O-] [Example 6] | 65
COc1cc(Oc2ccc(C(F)(F)F)cc2Cl)ccc1[N+](=O)[O-] [Example 2] | 97
CCOc1cc(Oc2ccc(C(F)(F)F)cc2)ccc1[N+](=O)[O-] [Example 1] | 42

test system: Monocots; assay: Herbicidal activity, postemergence, monocot weeds (Table II); type: in vivo; settings: post-emergence, 336 h, 2 lb./A., about 2 weeks, read-out: % control (percent of plants killed)
Experimental: as §1, §15, §16, §17, §18, §19, §20, §21, §22, §14

Compound | pest or weed control at 2241.7 g/ha [%]
CCN(C(=O)NC)c1cc(Oc2ccc(C(F)(F)F)cc2Cl)ccc1[N+](=O)[O-] [Example 55, 2-Chloro-α,α,α-trifluoro-p-tolyl-3-(3-methyl-1-ethylureido)-4-nitrophenyl ether] | 31

same assay, conditions: post-emergence, 336 h, 4 lb./A., about 2 weeks, read-out: % control (percent of plants killed)

Compound | pest or weed control at 4483.4 g/ha [%]
CCCCOc1cc(Oc2ccc(C(F)(F)F)cc2Cl)ccc1[N+](=O)[O-] [Example 6] | 91
COc1cc(Oc2ccc(C(F)(F)F)cc2Cl)ccc1[N+](=O)[O-] [Example 2] | 99
CCOc1cc(Oc2ccc(C(F)(F)F)cc2)ccc1[N+](=O)[O-] [Example 1] | 57
CCN(C(=O)NC)c1cc(Oc2ccc(C(F)(F)F)cc2Cl)ccc1[N+](=O)[O-] [Example 55, 2-Chloro-α,α,α-trifluoro-p-tolyl-3-(3-methyl-1-ethylureido)-4-nitrophenyl ether] | 69

same assay, conditions: post-emergence, 336 h, 10 lb./A., about 2 weeks, read-out: % control (percent of plants killed)

Compound | pest or weed control at 11208.5 g/ha [%]
CCCCOc1cc(Oc2ccc(C(F)(F)F)cc2Cl)ccc1[N+](=O)[O-] [Example 6] | 97
COc1cc(Oc2ccc(C(F)(F)F)cc2Cl)ccc1[N+](=O)[O-] [Example 2] | 100
CCOc1cc(Oc2ccc(C(F)(F)F)cc2)ccc1[N+](=O)[O-] [Example 1] | 82
